Test results: PubChem BioAssay AID320 (DTP/NCI, 2004)
Values joined by “and” are separate entries in the source; they are usually repeats but may differ in a detail not shown here. Equal values may be shown once. Inconclusive results and toxic doses are left out.

Tested on: BDF1 mice, P329 reticulum cell sarcoma ip, survival T/C
Assay: NCI In Vivo Anticancer Drug Screen. Data for tumor model P329 Reticulum Cell Sarcoma (intraperitoneal) in B6D2F1 (BDF1) mice
Conditions: endpoint: median survival time, higher = longer survival
Procedure: The antitumor activity of compounds was measured in mice bearing transplantable tumors. Survival or tumor size were measured and the results are expressed as the measurement made in the treated group (T) divided by the measurement made in the vehicle treated control group (C). The tumor model used in this assay is P329 Reticulum Cell Sarcoma (intraperitoneal) in B6D2F1 (BDF1) mice

[1] = dose: 2.5 mg/kg/injection, schedule: Q01DX010 (ip), vehicle: saline
[2] = dose: 10.0 mg/kg/injection, schedule: Q01DX010 (ip), vehicle: saline
[3] = dose: 31.3 mg/kg/injection, schedule: Q01DX010 (ip), vehicle: saline
[4] = dose: 125.0 mg/kg/injection, schedule: Q01DX010 (ip), vehicle: saline
[5] = dose: 12.5 mg/kg/injection, schedule: Q01DX010 (sc), vehicle: steriod suspending solution
[6] = dose: 25.0 mg/kg/injection, schedule: Q01DX010 (sc), vehicle: steriod suspending solution
[7] = dose: 50.0 mg/kg/injection, schedule: Q01DX010 (sc), vehicle: steriod suspending solution
[8] = dose: 5.0 mg/kg/injection, schedule: Q01DX010 (ip), vehicle: saline
[9] = dose: 20.0 mg/kg/injection, schedule: Q01DX010 (ip), vehicle: saline
[10] = dose: 40.0 mg/kg/injection, schedule: Q01DX010 (ip), vehicle: saline
[11] = dose: 1.0 mg/kg/injection, schedule: Q01DX010 (ip), vehicle: saline
[12] = dose: 18.8 mg/kg/injection, schedule: Q01DX010 (ip), vehicle: saline
[13] = dose: 37.5 mg/kg/injection, schedule: Q01DX010 (ip), vehicle: saline
[14] = dose: 75.0 mg/kg/injection, schedule: Q01DX010 (ip), vehicle: saline
[15] = dose: 8.0 mg/kg/injection, schedule: Q01DX010 (ip), vehicle: saline
[16] = dose: 16.0 mg/kg/injection, schedule: Q01DX010 (ip), vehicle: saline
[17] = dose: 200.0 mg/kg/injection, schedule: Q01DX010 (ip), vehicle: saline
[18] = dose: 25.0 mg/kg/injection, schedule: Q01DX010 (ip), vehicle: saline
[19] = dose: 50.0 mg/kg/injection, schedule: Q01DX010 (ip), vehicle: saline
[20] = dose: 32.0 mg/kg/injection, schedule: Q01DX010 (ip), vehicle: saline
[21] = dose: 64.0 mg/kg/injection, schedule: Q01DX010 (ip), vehicle: saline
[22] = dose: 4.0 mg/kg/injection, schedule: Q01DX010 (ip), vehicle: saline
[23] = dose: 80.0 mg/kg/injection, schedule: Q01DX010 (ip), vehicle: saline
[24] = dose: 0.5 mg/kg/injection, schedule: Q01DX010 (ip), vehicle: saline
[25] = dose: 1.25 mg/kg/injection, schedule: Q01DX010 (ip), vehicle: saline

Cn1cnc([N+](=O)[O-])c1Sc1nc(N)nc2nc[nH]c12
T/C [1]: 150 % of control
T/C [2]: 100 % of control

CCCSc1ncnc2nc[nH]c12
T/C [3]: 115 % of control and 123 % of control
T/C (dose: 62.5 mg/kg/injection, schedule: Q01DX010 (ip), vehicle: saline): 107 % of control
T/C [4]: 107 % of control

C[C@]12C=CC(=O)C=C1CC[C@@H]1[C@@H]2[C@@H](O)C[C@@]2(C)[C@H]1CC[C@]2(O)C(=O)CO
T/C [5]: 100 % of control and 103 % of control
T/C [6]: 100 % of control
T/C [7]: 100 % of control
T/C (dose: 100.0 mg/kg/injection, schedule: Q01DX010 (sc), vehicle: steriod suspending solution): 100 % of control

Clc1ccc(C(c2ccccc2Cl)C(Cl)Cl)cc1 (stereo unspecified)
T/C (dose: 62.5 mg/kg/injection, schedule: Q01DX010 (sc), vehicle: steriod suspending solution): 100 % of control
T/C (dose: 125.0 mg/kg/injection, schedule: Q01DX010 (sc), vehicle: steriod suspending solution): 100 % of control
T/C (dose: 250.0 mg/kg/injection, schedule: Q01DX010 (sc), vehicle: steriod suspending solution): 107 % of control
T/C (dose: 500.0 mg/kg/injection, schedule: Q01DX010 (sc), vehicle: steriod suspending solution): 103 % of control

CN(C)c1ccc(/C=C/c2ccnc3ccccc23)cc1
T/C [8]: 100 % of control and 103 % of control
T/C [2]: 92 % of control and 107 % of control
T/C [9]: 96 % of control and 103 % of control
T/C [10]: 92 % of control and 100 % of control

CS(=O)(=O)OCCN(CCOS(C)(=O)=O)c1ccc(N=O)cc1
T/C [11]: 107 % of control

CN(C)c1nc(N(C)C)nc(N(C)C)n1
T/C [12]: 96 % of control and 103 % of control
T/C [13]: 92 % of control and 100 % of control
T/C [14]: 92 % of control and 107 % of control
T/C (dose: 150.0 mg/kg/injection, schedule: Q01DX010 (ip), vehicle: saline): 107 % of control and 114 % of control

c1ccc(CNc2ncnc3[nH]ncc23)cc1
T/C [15]: 103 % of control and 115 % of control
T/C [16]: 107 % of control

CC(=O)O[C@]1(C(C)=O)CC[C@H]2[C@@H]3C[C@H](C)C4=CC(=O)C=C[C@]4(C)[C@@]3(F)[C@@H](O)C[C@@]21C
T/C [5]: 93 % of control
T/C [6]: 93 % of control
T/C [7]: 93 % of control

CCN(CCNc1ccc(C)c2sc3cc(Cl)ccc3c(=O)c12)CC(C)O (stereo unspecified)
T/C [3]: 100 % of control
T/C (dose: 250.0 mg/kg/injection, schedule: Q01DX010 (ip), vehicle: saline): 92 % of control

O=c1cnn(C2OC(CO)C(O)C2O)c(=O)[nH]1 (stereo unspecified)
T/C [17]: 116 % of control

COS(C)(=O)=O
T/C (dose: 12.5 mg/kg/injection, schedule: Q01DX010 (ip), vehicle: saline): 100 % of control
T/C [18]: 93 % of control
T/C [19]: 116 % of control

Nc1nc2n[nH]nc2c(=O)[nH]1
T/C (dose: 100.0 mg/kg/injection, schedule: Q01DX010 (ip), vehicle: alkali diluted with saline): 153 % of control
T/C (dose: 200.0 mg/kg/injection, schedule: Q01DX010 (ip), vehicle: alkali diluted with saline): 150 % of control

Nc1nc(SCc2ccccc2)c2[nH]cnc2n1
T/C [15]: 100 % of control and 121 % of control
T/C [16]: 114 % of control and 121 % of control
T/C [20]: 117 % of control
T/C [21]: 89 % of control

O=C(Nc1ccc(NC2=NCCN2)cc1)c1ccc(C(=O)Nc2ccc(NC3=NCCN3)cc2)cc1
T/C (dose: 2.0 mg/kg/injection, schedule: Q01DX010 (ip), vehicle: saline): 153 % of control and 157 % of control
T/C [22]: 173 % of control and 176 % of control
T/C [15]: 184 % of control and 203 % of control
T/C [16]: 88 % of control and 92 % of control

NC(Cc1ccc(N(CCCl)CCCl)cc1)C(=O)O (stereo unspecified)
T/C [8]: 153 % of control
T/C [2]: 175 % of control

O=c1[nH]cc(F)c(=O)[nH]1
T/C [8]: 123 % of control
T/C [9]: 161 % of control and 162 % of control

O=c1[nH]c(=O)n(C2CC(O)C(CO)O2)cc1F (stereo unspecified)
T/C [8]: 103 % of control
T/C [2]: 110 % of control and 111 % of control
T/C [9]: 123 % of control
T/C [10]: 150 % of control
T/C [23]: 161 % of control

C1CN1c1nc(N2CC2)nc(N2CC2)n1
T/C (dose: 0.13 mg/kg/injection, schedule: Q01DX010 (ip), vehicle: saline): 96 % of control and 108 % of control
T/C (dose: 0.25 mg/kg/injection, schedule: Q01DX010 (ip), vehicle: saline): 115 % of control
T/C [24]: 170 % of control
T/C [11]: 150 % of control

CC[C@]1(O)C[C@H]2CN(CCc3c([nH]c4ccccc34)[C@@](C(=O)OC)(c3cc4c(cc3OC)N(C=O)[C@H]3[C@@](O)(C(=O)OC)[C@H](OC(C)=O)[C@]5(CC)C=CCN6CC[C@]43[C@@H]65)C2)C1
T/C (dose: 0.03 mg/kg/injection, schedule: Q01DX010 (ip), vehicle: saline): 100 % of control and 105 % of control
T/C (dose: 0.06 mg/kg/injection, schedule: Q01DX010 (ip), vehicle: saline): 104 % of control and 113 % of control
T/C (dose: 0.12 mg/kg/injection, schedule: Q01DX010 (ip), vehicle: saline): 114 % of control

O=C(Nc1ccc(C2=NCCN2)cc1)c1cccc(C(=O)Nc2ccc(C3=NCCN3)cc2)c1
T/C [16]: 150 % of control and 176 % of control
T/C [20]: 169 % of control and 180 % of control
T/C [21]: 184 % of control and 196 % of control

C[C@]12C=CC(=O)C=C1CC[C@@H]1[C@@H]2C(=O)C[C@@]2(C)[C@H]1CC[C@]2(O)C(=O)CO
T/C [5]: 95 % of control and 104 % of control

N#[N+]c1cnc([O-])[nH]c1=O
T/C [25]: 122 % of control
T/C [1]: 103 % of control
T/C [8]: 110 % of control
T/C [2]: 117 % of control

S=c1nc[nH]c2nc[nH]c12
T/C (dose: 20.0 mg/kg/injection, schedule: Q01DX010 (ip), vehicle: alkali diluted with saline): 150 % of control
T/C (dose: 80.0 mg/kg/injection, schedule: Q01DX010 (ip), vehicle: alkali diluted with saline): 158 % of control

CC[n+]1c(-c2ccccc2)c2cc(N)ccc2c2ccc(N)cc21
T/C [1]: 114 % of control
T/C [9]: 107 % of control

Cn1c(N)nc2nc[nH]c2c1=S
T/C [2]: 100 % of control
T/C [9]: 106 % of control
T/C [10]: 100 % of control
T/C [23]: 106 % of control

CCn1cnc2c(=S)nc[nH]c21
T/C (dose: 15.6 mg/kg/injection, schedule: Q01DX010 (ip), vehicle: saline): 111 % of control and 114 % of control
T/C [3]: 114 % of control and 123 % of control
T/C [4]: 89 % of control and 100 % of control

C#CCN(C)Cc1ccccc1
T/C [18]: 100 % of control
T/C [19]: 100 % of control
T/C (dose: 100.0 mg/kg/injection, schedule: Q01DX010 (ip), vehicle: saline): 93 % of control
T/C [17]: 106 % of control

Nc1nc(=S)c2ncn(C3OC(CO)C(O)C3O)c2[nH]1 (stereo unspecified)
T/C [22]: 110 % of control
T/C [16]: 90 % of control

CS(=O)(=O)OCCCl
T/C (dose: 9.4 mg/kg/injection, schedule: Q01DX010 (ip), vehicle: saline): 107 % of control
T/C [12]: 96 % of control and 100 % of control
T/C [13]: 92 % of control and 107 % of control
T/C [14]: 92 % of control and 107 % of control

N#CCSc1ncnc2nc[nH]c12
T/C (dose: 15.0 mg/kg/injection, schedule: Q01DX010 (ip), vehicle: saline): 150 % of control
T/C (dose: 30.0 mg/kg/injection, schedule: Q01DX010 (ip), vehicle: saline): 115 % of control
T/C (dose: 120.0 mg/kg/injection, schedule: Q01DX010 (ip), vehicle: saline): 173 % of control

CC(=O)Nc1ccc2nc3ccc(NC(C)=O)cc3[n+](-c3ccccc3)c2c1
T/C [18]: 121 % of control
T/C [19]: 114 % of control

Oc1cc(CN(CCCl)CCCl)c(O)cc1CN(CCCl)CCCl
T/C (dose: 0.63 mg/kg/injection, schedule: Q01DX010 (ip), vehicle: saline): 103 % of control and 114 % of control
T/C [25]: 114 % of control
T/C [1]: 117 % of control
T/C [8]: 96 % of control and 107 % of control

N=C(N)SCc1c2ccccc2c(CSC(=N)N)c2ccccc12
T/C [1]: 112 % of control
T/C [8]: 118 % of control
T/C [2]: 106 % of control
T/C [9]: 118 % of control

S=P(N1CC1)(N1CC1)N1CC1
T/C (dose: 0.75 mg/kg/injection, schedule: Q01DX010 (ip), vehicle: saline): 103 % of control and 107 % of control
T/C (dose: 1.5 mg/kg/injection, schedule: Q01DX010 (ip), vehicle: saline): 111 % of control
T/C (dose: 6.0 mg/kg/injection, schedule: Q01DX010 (ip), vehicle: saline): 115 % of control and 123 % of control

CO[C@H](C(=O)[C@@H](O)[C@@H](C)O)[C@@H]1Cc2cc3cc(OC4CC(OC5CC(O)C(O)C(C)O5)C(O)C(C)O4)c(C)c(O)c3c(O)c2C(=O)[C@H]1OC1CC(OC2CC(OC3CC(C)(O)C(O)C(C)O3)C(O)C(C)O2)C(O)C(C)O1 (stereo partly specified)
T/C [24]: 103 % of control
T/C [11]: 90 % of control
